Legend:
Experiment in all cases: relative viability (nuclei count vs DMSO), 5 days (fraction); higher = more cells survive
[1] = system: ChaGo-K-1
How it was run: (§1)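 Cells from lung cancer lines were seeded into 1536-well plates and, one day later, dosed by pin tool. Treatments were either a single drug or a fixed dose of an anchor drug with five library-drug doses (not always all listed) in √10 steps. After 5 days, nuclei were stained in a one-step fixation (final 0.05% Triton X-100, 1% formaldehyde, 1 ug/ml Hoechst) and counted on 4× images, and relative viability is the treated-to-vehicle nuclei ratio, as the median of duplicate plates.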

[2] = system: NCI-H1793
How it was run: as §1

[3] = system: LCLC-103H
How it was run: as §1

[4] = system: NCI-H2170
How it was run: as §1

[5] = system: NCI-H460
How it was run: as §1

[6] = system: HCC-44
How it was run: as §1

[7] = system: NCI-H650
How it was run: as §1

[8] = system: NCI-H2347
How it was run: as §1

[9] = system: NCI-H2023
How it was run: as §1

[10] = system: NCI-H441
How it was run: as §1

[11] = system: EPLC-272H
How it was run: as §1

[12] = system: NCI-H2009
How it was run: as §1

[13] = system: NCI-H2405
How it was run: as §1

[14] = system: HOP-62
How it was run: as §1

[15] = system: NCI-H1437
How it was run: as §1

[16] = system: NCI-H23
How it was run: as §1

[17] = system: NCI-H647
How it was run: as §1

[18] = system: NCI-H2126
How it was run: as §1

[19] = system: EMC-BAC-2
How it was run: as §1

[20] = system: LOU-NH91
How it was run: as §1

[21] = system: NCI-H520
How it was run: as §1

[22] = system: SW 1573
How it was run: as §1

Question: For `Cc1cnc(-c2cnc(NCCNc3ccc(C#N)cn3)nc2-c2ccc(Cl)cc2Cl)[nH]1` + Nc1nc2[nH]cc(CCc3ccc(C(=O)N[C@@H](CCC(=O)O)C(=O)O)cc3)c2c(=O)[nH]1 [Pemetrexed] (partner 0.2 µM), which relative viability ([1]; first compound 0.08 µM) is on record?
Answer: Its relative viability is 0.252.

Question: What about the relative viability ([1]; first compound 0.253 µM) of the same compound?
Answer: Its relative viability is 0.265.

Question: And the relative viability ([1]; first compound 0.8 µM)?
Answer: The relative viability was 0.259.

Question: What about the relative viability ([1]; first compound 2.53 µM) of the same compound?
Answer: The relative viability was 0.248.

Question: And the relative viability ([2]; first compound 0.08 µM)?
Answer: The relative viability was 1.04.

Question: What about the relative viability ([2]; first compound 0.253 µM) of the same compound?
Answer: The relative viability was 0.839.

Question: What about the relative viability ([2]; first compound 0.8 µM) of the same compound?
Answer: Its relative viability is 0.794.

Question: What about the relative viability ([2]; first compound 2.53 µM) of the same compound?
Answer: The relative viability was 1.14.

Question: What about the relative viability ([3]; first compound 0.08 µM) of the same compound?
Answer: The relative viability was 0.49.

Question: And the relative viability ([3]; first compound 0.253 µM)?
Answer: Its relative viability is 0.43.

Question: And the relative viability ([3]; first compound 0.8 µM)?
Answer: Its relative viability is 0.453.

Question: And the relative viability ([3]; first compound 2.53 µM)?
Answer: Its relative viability is 0.418.

Question: And the relative viability ([4]; first compound 0.08 µM)?
Answer: The relative viability was 0.253.

Question: What about the relative viability ([4]; first compound 2.53 µM) of the same compound?
Answer: Its relative viability is 0.25.

Question: And the relative viability ([5]; first compound 0.08 µM)?
Answer: The relative viability was 0.073.

Question: What about the relative viability ([5]; first compound 0.253 µM) of the same compound?
Answer: Its relative viability is 0.0754.

Question: And the relative viability ([5]; first compound 0.8 µM)?
Answer: The relative viability was 0.0676.

Question: What about the relative viability ([5]; first compound 2.53 µM) of the same compound?
Answer: Its relative viability is 0.0722.

Question: And the relative viability ([6]; first compound 0.08 µM)?
Answer: The relative viability was 0.633.

Question: What about the relative viability ([6]; first compound 0.253 µM) of the same compound?
Answer: The relative viability was 0.631.

Question: And the relative viability ([6]; first compound 0.8 µM)?
Answer: Its relative viability is 0.643.

Question: What about the relative viability ([6]; first compound 2.53 µM) of the same compound?
Answer: The relative viability was 0.685.

Question: What about the relative viability ([7]; first compound 0.08 µM) of the same compound?
Answer: Its relative viability is 0.915.

Question: And the relative viability ([7]; first compound 0.253 µM)?
Answer: The relative viability was 0.92.

Question: What about the relative viability ([7]; first compound 0.8 µM) of the same compound?
Answer: The relative viability was 0.934.

Question: What about the relative viability ([7]; first compound 2.53 µM) of the same compound?
Answer: Its relative viability is 0.904.

Question: And the relative viability ([8]; first compound 0.08 µM)?
Answer: Its relative viability is 0.44.

Question: What about the relative viability ([8]; first compound 0.253 µM) of the same compound?
Answer: Its relative viability is 0.42.

Question: What about the relative viability ([8]; first compound 0.8 µM) of the same compound?
Answer: The relative viability was 0.398.

Question: And the relative viability ([8]; first compound 2.53 µM)?
Answer: The relative viability was 0.431.

Question: What about the relative viability ([9]; first compound 0.08 µM) of the same compound?
Answer: Its relative viability is 0.283.

Question: What about the relative viability ([9]; first compound 0.253 µM) of the same compound?
Answer: Its relative viability is 0.229.

Question: And the relative viability ([9]; first compound 0.8 µM)?
Answer: Its relative viability is 0.199.

Question: What about the relative viability ([9]; first compound 2.53 µM) of the same compound?
Answer: The relative viability was 0.261.

Question: And the relative viability ([10]; first compound 0.08 µM)?
Answer: The relative viability was 0.271.

Question: What about the relative viability ([10]; first compound 0.8 µM) of the same compound?
Answer: Its relative viability is 0.279.

Question: And the relative viability ([10]; first compound 2.53 µM)?
Answer: Its relative viability is 0.236.

Question: And the relative viability ([11]; first compound 0.08 µM)?
Answer: The relative viability was 0.388.

Question: And the relative viability ([11]; first compound 0.253 µM)?
Answer: Its relative viability is 0.293.

Question: And the relative viability ([11]; first compound 0.8 µM)?
Answer: The relative viability was 0.344.

Question: What about the relative viability ([11]; first compound 2.53 µM) of the same compound?
Answer: The relative viability was 0.276.

Question: And the relative viability ([12]; first compound 0.08 µM)?
Answer: Its relative viability is 0.966.

Question: What about the relative viability ([12]; first compound 0.253 µM) of the same compound?
Answer: Its relative viability is 0.983.

Question: And the relative viability ([12]; first compound 0.8 µM)?
Answer: The relative viability was 0.982.

Question: What about the relative viability ([12]; first compound 2.53 µM) of the same compound?
Answer: Its relative viability is 0.95.

Question: What about the relative viability ([13]; first compound 0.08 µM) of the same compound?
Answer: Its relative viability is 1.09.

Question: And the relative viability ([13]; first compound 0.253 µM)?
Answer: Its relative viability is 1.06.

Question: What about the relative viability ([13]; first compound 0.8 µM) of the same compound?
Answer: The relative viability was 1.04.

Question: What about the relative viability ([13]; first compound 2.53 µM) of the same compound?
Answer: Its relative viability is 0.468.

Question: What about the relative viability ([14]; first compound 0.08 µM) of the same compound?
Answer: The relative viability was 0.26.

Question: And the relative viability ([14]; first compound 0.253 µM)?
Answer: The relative viability was 0.339.

Question: What about the relative viability ([14]; first compound 0.8 µM) of the same compound?
Answer: The relative viability was 0.312.

Question: What about the relative viability ([14]; first compound 2.53 µM) of the same compound?
Answer: The relative viability was 0.236.

Question: What about the relative viability ([15]; first compound 0.08 µM) of the same compound?
Answer: The relative viability was 0.3.

Question: And the relative viability ([15]; first compound 0.253 µM)?
Answer: Its relative viability is 0.328.

Question: And the relative viability ([15]; first compound 0.8 µM)?
Answer: The relative viability was 0.268.

Question: What about the relative viability ([15]; first compound 2.53 µM) of the same compound?
Answer: The relative viability was 0.269.

Question: What about the relative viability ([16]; first compound 0.08 µM) of the same compound?
Answer: Its relative viability is 0.667.

Question: What about the relative viability ([16]; first compound 0.253 µM) of the same compound?
Answer: The relative viability was 0.634.

Question: And the relative viability ([16]; first compound 0.8 µM)?
Answer: The relative viability was 0.486.

Question: And the relative viability ([16]; first compound 2.53 µM)?
Answer: Its relative viability is 0.438.

Question: And the relative viability ([17]; first compound 0.08 µM)?
Answer: Its relative viability is 0.18.

Question: What about the relative viability ([17]; first compound 0.253 µM) of the same compound?
Answer: The relative viability was 0.148.

Question: And the relative viability ([17]; first compound 0.8 µM)?
Answer: Its relative viability is 0.145.

Question: What about the relative viability ([17]; first compound 2.53 µM) of the same compound?
Answer: The relative viability was 0.114.

Question: And the relative viability ([18]; first compound 0.08 µM)?
Answer: Its relative viability is 0.706.

Question: What about the relative viability ([18]; first compound 0.253 µM) of the same compound?
Answer: The relative viability was 0.642.

Question: What about the relative viability ([18]; first compound 0.8 µM) of the same compound?
Answer: Its relative viability is 0.634.

Question: And the relative viability ([18]; first compound 2.53 µM)?
Answer: The relative viability was 0.618.

Question: And the relative viability ([19]; first compound 0.08 µM)?
Answer: Its relative viability is 0.419.

Question: And the relative viability ([19]; first compound 0.253 µM)?
Answer: The relative viability was 0.43.

Question: And the relative viability ([19]; first compound 0.8 µM)?
Answer: The relative viability was 0.393.

Question: What about the relative viability ([19]; first compound 2.53 µM) of the same compound?
Answer: The relative viability was 0.368.

Question: What about the relative viability ([20]; first compound 0.08 µM) of the same compound?
Answer: Its relative viability is 0.376.

Question: And the relative viability ([20]; first compound 0.253 µM)?
Answer: Its relative viability is 0.383.

Question: And the relative viability ([20]; first compound 0.8 µM)?
Answer: The relative viability was 0.399.

Question: And the relative viability ([20]; first compound 2.53 µM)?
Answer: The relative viability was 0.349.

Question: And the relative viability ([21]; first compound 0.08 µM)?
Answer: Its relative viability is 0.729.

Question: What about the relative viability ([21]; first compound 0.253 µM) of the same compound?
Answer: Its relative viability is 0.727.

Question: What about the relative viability ([21]; first compound 0.8 µM) of the same compound?
Answer: Its relative viability is 0.74.

Question: What about the relative viability ([21]; first compound 2.53 µM) of the same compound?
Answer: Its relative viability is 0.492.

Question: And the relative viability ([22]; first compound 0.08 µM)?
Answer: Its relative viability is 1.06.

Question: And the relative viability ([22]; first compound 0.253 µM)?
Answer: The relative viability was 0.797.

Question: And the relative viability ([22]; first compound 0.8 µM)?
Answer: Its relative viability is 0.551.

Question: And the relative viability ([22]; first compound 2.53 µM)?
Answer: Its relative viability is 0.364.
